Laboratory results: patent US20240124460A1, “METHODS AND COMPOSITIONS FOR TARGETED PROTEIN DEGRADATION” (Ranok Therapeutics (Hangzhou) Co. Ltd., priority 2020, published 2024)
Like-named read-outs stand apart in the source and are kept apart here.

What was measured:
[1] = system: U-87 MG human glioblastoma; test: U87 MG CCK-8 proliferation assay; format: cell-based; conditions: U-87 MG cells, read-out: U87MG CCK-8
Summary of the method: (§1)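 Inhibition is derived from CCK-8 absorbance of compound-treated cells relative to DMSO-treated cells, after subtracting a cell-free medium/DMSO background. Test concentrations span 20 μM down to 1.02 nM in 3-fold steps, and lines are cultured as ATCC recommends.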

[2] = system: MV-4-11 human acute myeloid leukemia; test: MV-4-11 CCK-8 proliferation assay; format: cell-based; conditions: MV-4-11 cells, 72 hr
Summary of the method: as §1

ERBB2 = ERBB2 (HER2) flow cytometry protein degradation assay in BT-474 cells; format: cell-based, human; conditions: DC50, BT-474 cells, 24 hr
Method: To analyze total ERBB2 expression by flow cytometry, cells were detached with trypsin, washed, counted and treated with 10 μl/10^6 cells PE-conjugated, anti-ERBB2 monoclonal antibody (R&D Systems, #FAB1129P) for 30 min at 25° C. in dark. Cells were then washed, resuspended in 200 μl 1% paraformaldehyde and analyzed by flow cytometry.
% Inhibition=100−(D−B)/(S−B)*100%. • S: Fluorescence intensity of cells with antibody • D: Fluorescence intensity of compound-treated cells with antibody • B: Fluorescence intensity of cells without antibody

HSP90α protein = molecular target: T1, HSP90α protein (Homo sapiens, UniProt P07900); test: HSP90α-binding FP (BODIPY) assay; conditions: FP competition with BODIPY-labeled RNK04010
T1 construct: purchased BPS Bioscience #50298
Summary of the method: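 Fluorescence polarization measured competition with N-terminal human HSP90α, using either FITC-geldanamycin or BODIPY-labelled triazolone RNK04010 as tracer (5 nM final each). Compounds were tested in 2.5-fold dilutions from 20 μM to 5.2 nM, with incubation at 25 °C for 120 min (FITC) or 300 min (BODIPY).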

## CCOc1cc(N2CCC(C(=O)NCc3ccc(-n4c(O)nnc4-c4cc(C)c(O)cc4O)cc3)CC2)ccc1Nc1ncc2c(n1)N(C)c1ccccc1C(=O)N2C [Compound 027, N-(4-(3-(2,4-dihydroxy-5-methylphenyl)-5-hydroxy-4H-1,2,4-triazol-4-yl)benzyl)-1-(4-((5,11-dimethyl-6-oxo-6,11-dihydro-5H-benzo[e]pyrimido[5,4-b][1,4]diazepin-2-yl)amino)-3-ethoxyphenyl)piperidine-4-carboxamide]
[1]; Homo sapiens, U-87 MG, 72 h
  EC50: > 1000 nM
[2]; Homo sapiens, MV4-11
  EC50: 100 to 1000 nM
ERBB2
  ERBB2 degradation: C (DC50 > 1000 nM)

## CCCc1cc(-c2nnc(O)n2-c2ccc(CNC(=O)C3CCN(c4ccc(Nc5ncc6c(n5)N(C)c5ccccc5C(=O)N6C)c(OCC)c4)CC3)cc2)c(O)cc1O [Compound 029, N-(4-(3-(2,4-dihydroxy-5-propylphenyl)-5-hydroxy-4H-1,2,4-triazol-4-yl)benzyl)-1-(4-((5,11-dimethyl-6-oxo-6,11-dihydro-5H-benzo[e]pyrimido[5,4-b][1,4]diazepin-2-yl)amino)-3-ethoxyphenyl)piperidine-4-carboxamide]
[1]; 72 hr
  EC50: > 1000 nM
[2]; Homo sapiens, MV4-11
  EC50: 100 to 1000 nM
ERBB2
  ERBB2 degradation: B (DC50 = 100-1000 nM)

## CCOc1cc(N2CCC(C(=O)NCc3ccc(-n4c(O)nnc4-c4cc(C(C)C)c(O)cc4O)cc3C(F)(F)F)CC2)ccc1Nc1ncc2c(n1)N(C)c1ccccc1C(=O)N2C [Compound 030, N-(4-(3-(2,4-dihydroxy-5-isopropylphenyl)-5-hydroxy-4H-1,2,4-triazol-4-yl)-2-(trifluoromethyl)benzyl)-1-(4-((5,11-dimethyl-6-oxo-6,11-dihydro-5H-benzo[e]pyrimido[5,4-b][1,4]diazepin-2-yl)amino)-3-ethoxyphenyl)piperidine-4-carboxamide]
[1]; Homo sapiens, U-87 MG, 72 h
  EC50: > 1000 nM
[2]; Homo sapiens, MV4-11
  EC50: 100 to 1000 nM
ERBB2
  ERBB2 degradation: B (DC50 = 100-1000 nM)

## CCOc1cc(N2CCC(C(=O)NCc3ccc(-n4c(O)nnc4-c4cc(CC)c(O)cc4O)cc3F)CC2)ccc1Nc1ncc2c(n1)N(C)c1ccccc1C(=O)N2C [Compound 037, 1-(4-((5,11-dimethyl-6-oxo-6,11-dihydro-5H-benzo[e]pyrimido[5,4-b][1,4]diazepin-2-yl)amino)-3-ethoxyphenyl)-N-(4-(3-(5-ethyl-2,4-dihydroxyphenyl)-5-hydroxy-4H-1,2,4-triazol-4-yl)-2-fluorobenzyl)piperidine-4-carboxamide]
[1]; Homo sapiens, U-87 MG, 72 h
  EC50: 100 to 1000 nM
[2]; Homo sapiens, MV4-11
  EC50: 100 to 1000 nM
ERBB2
  ERBB2 degradation: B (DC50 = 100-1000 nM)

## CCCc1cc(-c2nnc(O)n2-c2ccc(CNC(=O)C3CCN(c4ccc(Nc5ncc6c(n5)N(C)c5ccccc5C(=O)N6C)c(OCC)c4)CC3)cc2)c(O)cc1O [Compound 039, N-(4-(3-(2,4-dihydroxy-5-propylphenyl)-5-hydroxy-4H-1,2,4-triazol-4-yl)benzyl)-1-(4-((5,11-dimethyl-6-oxo-6,11-dihydro-5H-benzo[e]pyrimido[5,4-b][1,4]diazepin-2-yl)amino)-3-ethoxyphenyl)piperidine-4-carboxamide]
[1]; 72 hr
  EC50: 100 to 1000 nM
[2]
  EC50: 100 to 1000 nM
ERBB2
  ERBB2 degradation: B (DC50 = 100-1000 nM)

## CCOc1cc(N2CCC(C(=O)N3CCC(CN4CCN(C(=O)CNC(=O)O[C@H]5CC[C@H](Nc6cc(-n7nc(C(F)(F)F)c8c7CC(C)(C)CC8=O)ccc6C(N)=O)CC5)CC4)CC3)CC2)ccc1Nc1ncc2c(n1)N(S(C)(=O)=O)c1ccccc1C(=O)N2C [Compound 119, (1R,4R)-4-((2-carbamoyl-5-(6,6-dimethyl-4-oxo-3-(trifluoromethyl)-4,5,6,7-tetrahydro-1H-indazol-1-yl)phenyl)amino)cyclohexyl (2-(4-((1-(1-(3-ethoxy-4-((5-methyl-11-(methylsulfonyl)-6-oxo-6,11-dihydro-5H-benzo[e]pyrimido[5,4-b][1,4]diazepin-2-yl)amino)phenyl)piperidine-4-carbonyl)piperidin-4-yl)methyl)piperazin-1-yl)-2-oxoethyl)carbamate]
HSP90α protein
  IC50: > 1000 nM
[1]; Homo sapiens, U-87 MG, 72 h
  EC50: > 1000 nM
[2]; Homo sapiens, MV4-11
  EC50: < 100 nM

## CCOc1cc(N2CCC(C(=O)NCCOCCOCCNC(=O)O[C@H]3CC[C@H](Nc4cc(-n5nc(C(F)(F)F)c6c5CC(C)(C)CC6=O)ccc4C(N)=O)CC3)CC2)ccc1Nc1ncc2c(n1)N(C)c1ccccc1C(=O)N2C [Compound 120, (1R,4R)-4-((2-carbamoyl-5-(6,6-dimethyl-4-oxo-3-(trifluoromethyl)-4,5,6,7-tetrahydro-1H-indazol-1-yl)phenyl)amino)cyclohexyl (2-(2-(2-(1-(4-((5,11-dimethyl-6-oxo-6,11-dihydro-5H-benzo[e]pyrimido[5,4-b][1,4]diazepin-2-yl)amino)-3-ethoxyphenyl)piperidine-4-carboxamido)ethoxy)ethoxy)ethyl)carbamate]
HSP90α protein
  IC50: > 1000 nM
[1]; Homo sapiens, U-87 MG, 72 h
  EC50: > 1000 nM
[2]; Homo sapiens, MV4-11
  EC50: 100 to 1000 nM

## CCOc1cc(N2CCC(C(=O)N3CCC(CN4CCN(C(=O)O[C@H]5CC[C@H](Nc6cc(-n7nc(C(F)(F)F)c8c7CC(C)(C)CC8=O)ccc6C(N)=O)CC5)CC4)CC3)CC2)ccc1Nc1ncc2c(n1)N(C)c1ccccc1C(=O)N2C [Compound 121, (1R,4R)-4-((2-carbamoyl-5-(6,6-dimethyl-4-oxo-3-(trifluoromethyl)-4,5,6,7-tetrahydro-1H-indazol-1-yl)phenyl)amino)cyclohexyl 4-((1-(1-(4-((5,11-dimethyl-6-oxo-6,11-dihydro-5H-benzo[e]pyrimido[5,4-b][1,4]diazepin-2-yl)amino)-3-ethoxyphenyl)piperidine-4-carbonyl)piperidin-4-yl)methyl)piperazine-1-carboxylate]
HSP90α protein
  IC50: > 1000 nM
[1]; Homo sapiens, U-87 MG, 72 h
  EC50: > 1000 nM
[2]; Homo sapiens, MV4-11
  EC50: > 1000 nM

## CCOc1cc(N2CCC(C(=O)N3CCC(CN4CCN(C(=O)CNC(=O)O[C@H]5CC[C@H](Nc6cc(-n7nc(C(F)(F)F)c8c7CC(C)(C)CC8=O)ccc6C(N)=O)CC5)CC4)CC3)CC2)ccc1Nc1ncc2c(n1)N(C)c1ccccc1C(=O)N2C [Compound 122, (1R,4R)-4-((2-carbamoyl-5-(6,6-dimethyl-4-oxo-3-(trifluoromethyl)-4,5,6,7-tetrahydro-1H-indazol-1-yl)phenyl)amino)cyclohexyl (2-(4-((1-(1-(4-((5,11-dimethyl-6-oxo-6,11-dihydro-5H-benzo[e]pyrimido[5,4-b][1,4]diazepin-2-yl)amino)-3-ethoxyphenyl)piperidine-4-carbonyl)piperidin-4-yl)methyl)piperazin-1-yl)-2-oxoethyl)carbamate]
HSP90α protein
  IC50: > 1000 nM
[1]; Homo sapiens, U-87 MG, 72 h
  EC50: > 1000 nM
[2]; Homo sapiens, MV4-11
  EC50: 100 to 1000 nM

## CCNC(=O)c1nnc(-c2cc(CC)c(O)cc2O)n1-c1ccc(CN2CCN(CC3CCN(C(=O)C4CCN(c5ccc(Nc6ncc7c(n6)N(C)c6ccccc6C(=O)N7C)c(OCC)c5)CC4)CC3)CC2)cc1 [Compound 134, 4-(4-((4-((1-(1-(4-((5,11-dimethyl-6-oxo-6,11-dihydro-5H-benzo[e]pyrimido[5,4-b][1,4]diazepin-2-yl)amino)-3-ethoxyphenyl)piperidine-4-carbonyl)piperidin-4-yl)methyl)piperazin-1-yl)methyl)phenyl)-N-ethyl-5-(5-ethyl-2,4-dihydroxyphenyl)-4H-1,2,4-triazole-3-carboxamide]
HSP90α protein
  IC50: < 100 nM
[1]; Homo sapiens, U-87 MG, 72 h
  EC50: < 100 nM
[2]; Homo sapiens, MV4-11
  EC50: < 100 nM

## (1R,4R)-4-((2-carbamoyl-5-(6,6-dimethyl-4-oxo-3-(trifluoromethyl)-4,5,6,7-tetrahydro-1H-indazol-1-yl)phenyl)amino)cyclohexyl 4-(1-(1-(3-ethoxy-4-((5-methyl-11-(methylsulfonyl)-6-oxo-6,11-dihydro-5H-benzo[e]pyrimido[5,4-b][1,4]diazepin-2-yl)amino)phenyl)piperidine-4-carbonyl)piperidin-4-yl)piperazine-1-carboxylate [Compound 118]
HSP90α protein
  IC50: > 1000 nM
[1]; 72 hr
  EC50: > 1000 nM
[2]
  EC50: 100 to 1000 nM

## (1R,4R)-4-((2-carbamoyl-5-(6,6-dimethyl-4-oxo-3-(trifluoromethyl)-4,5,6,7-tetrahydro-1H-indazol-1-yl)phenyl)amino)cyclohexyl 4-(1-(4-((5,11-dimethyl-6-oxo-6,11-dihydro-5H-benzo[e]pyrimido[5,4-b][1,4]diazepin-2-yl)amino)-3-ethoxyphenyl)piperidine-4-carbonyl)piperazine-1-carboxylate [Compound 104]
HSP90α protein
  IC50: > 1000 nM
[1]; 72 hr
  EC50: > 1000 nM
[2]
  EC50: > 1000 nM

## (1R,4R)-4-((2-carbamoyl-5-(6,6-dimethyl-4-oxo-3-(trifluoromethyl)-4,5,6,7-tetrahydro-1H-indazol-1-yl)phenyl)amino)cyclohexyl (3-(1-(4-((5,11-dimethyl-6-oxo-6,11-dihydro-5H-benzo[e]pyrimido[5,4-b][1,4]diazepin-2-yl)amino)-3-ethoxyphenyl)piperidine-4-carboxamido)propyl)carbamate [Compound 102]
HSP90α protein
  IC50: > 1000 nM
[1]; 72 hr
  EC50: > 1000 nM
[2]
  EC50: 100 to 1000 nM
